Assay results reported in patent US11685716B2, “Plant growth inhibiting agent, and plant growth inhibiting method using same” (NATIONAL UNIVERSITY CORPORATION KUMAMOTO UNIVERSITY, priority 2017, dated 2023).

Experiments:
Japanese millet = assay: Seed treatment, plant growth inhibition index (Evaluation 11); assay type: in vivo; set-up: key: 0: No effect; 1: Growth of the root part was inhibited 50% or less compared with non-treated area.; 2: Growth of the root part was inhibited 50% or more compared with non-treated area.; 3: Growth of the root part was substantially inhibited.; 4: Germination was inhibited; conditions: 200 μM, 6 days (9a, 9b: 7 days)
Method: (§1) The compound of the present invention (2 mg) was dissolved in a 1.5% Tween dimethylformamide solution (100 μL) to use as a test chemical solution.
(§2) Eight mL of sterilized water was poured to a cherry cup (100Φ×45 mm) lined with a filter paper, subsequently 81.1 μL of the sterilized water was removed, and 81.1 μL of the test chemical solution was added such that a final concentration of the compound was 800 μM.
(§3) Further, cherry cups were similarly prepared such that a final concentration of the compound was 200 μM.
(§4) Seeds (Japanese millet: 3 grains, velvet leaf: 6 grains, Ragweed: 8 grains, morning glory: 2 grains) were planted on the filter paper in the cherry cups, followed by growing the plants in a thermostatic chamber at 25° C. under a light-dark cycle in which a light period is 12 hours and a dark period is 12 hours for 6 days.
(§5) In addition, with regards to the compound (9a) and the compound (9b), the plants were tested for 7 days.
(§6) Plant growth inhibition effects of the compounds were evaluated by conversion to indexes according to the following investigation criteria.

velvet leaf [1] = assay: as above; assay type: in vivo; set-up: key: 0: No effect; 1: Growth of the root part was inhibited 50% or less compared with non-treated area.; 2: Growth of the root part was inhibited 50% or more compared with non-treated area.; 3: Growth of the root part was substantially inhibited.; 4: Germination was inhibited; conditions: 200 μM, 6 days (9a, 9b: 7 days)
Method: as §1, §2, §3, §4, §5, §6

morning glory = assay: as above; assay type: in vivo; set-up: key: 0: No effect; 1: Growth of the root part was inhibited 50% or less compared with non-treated area.; 2: Growth of the root part was inhibited 50% or more compared with non-treated area.; 3: Growth of the root part was substantially inhibited.; 4: Germination was inhibited; conditions: 200 μM, 6 days (9a, 9b: 7 days)
Method: as §1, §2, §3, §4, §5, §6

Ragweed = assay: as above; assay type: in vivo; set-up: key: 0: No effect; 1: Growth of the root part was inhibited 50% or less compared with non-treated area.; 2: Growth of the root part was inhibited 50% or more compared with non-treated area.; 3: Growth of the root part was substantially inhibited.; 4: Germination was inhibited; conditions: 200 μM, 6 days (9a, 9b: 7 days)
Method: as §1, §2, §3, §4, §5, §6

thale cress = assay: Plant growth inhibition index, thale cress on agar medium in test tube (Evaluation 8, 9); assay type: in vivo, thale cress (Col-0, wild-type strain); set-up: key: 0: No effect; 1: Growth of the root part was inhibited 50% or less compared with non-treated area.; 2: Growth of the root part was inhibited 50% or more compared with non-treated area.; 3: Growth of the root part was substantially inhibited.; 4: Germination was inhibited; conditions: for Index: Concentration 200 μM, 8 days (Evaluation 9, Table 2)
Method: 0.44% (w/v) Mixed salts for Murashige and Skoog medium (SIGMA), 1% (w/v) sucrose, and 0.05% (w/v) MES were mixed, and pH of the solution was adjusted to pH 5.7 with potassium hydroxide. 1.5% (w/v) Agar was added to the mixture, which was sterilized at 120° C. in an autoclave for 20 minutes. The test compound and dimethylformamide containing 1.5% of polyoxyethylenesorbitan monolaurate for a control experiment, were added at this stage and blended. In addition, the compound was used by adjusting an addition concentration to 200 μM. Four ml each of the medium was dispensed in sterile glass test tube ([…] RIKA GLASS CO., LTD.) to prepare agar medium.
As a plant material, Col-0, which is a wild-type strain of thale cress, was used.
Seeds, after their surfaces were sterilized, were planted on the agar medium, and the growth of the plant was carried out in a plant incubator (CFH-405) under the conditions of an illuminance of 3 at 23° C. with constant light. The plants on the agar medium were grown for 8 days in the chamber.
The plant growth inhibition effect of the compounds was evaluated by conversion to indexes according to the following investigation criteria.

Japanese bristlegrass = assay: Spray treatment to stems and leaves, killing weed index (Evaluation 10); assay type: in vivo; conditions: 2000 g active ingredient per hectare, two weeks later
Method: (§7) POA allyl phenyl ether (4.1 parts by weight), POE-POP glycol (1 part by weight), POE sorbitan laurate (0.8 parts by weight), glycerin (2.6 parts by weight), dimethylformamide (65.9 parts by weight), N-methylpyrrolidone (5.1 parts by weight), cyclohexanone (15.4 parts by weight), and aromatic hydrocarbon (5.1 parts by weight) were mixed and dissolved to prepare an emulsion. The compounds of the present invention (4 mg) were dissolved in this emulsion (100 μL) to prepare a test emulsion. In addition, POA means “polyoxyalkylene”, POE means “polyoxyethylene”, and POP means “polyoxypropylene.”
(§8) Four hundred μL of the above test emulsion was diluted with 7600 μL of water to use as a test spray liquid.
(§9) Further, 400 μL of the above test emulsion was diluted with 1600 μL of a 1% Tween20 aqueous solution to use as a spray liquid for a small amount spray test.
(§10) For a comparative spray liquid, 53 μL of a 30% pendimethalin emulsion (Gogosan emulsion: manufactured by BASF Japan) as a control pesticides was diluted with 7947 μL of water. Further, for a comparative spray liquid for a small amount spray test, 53 μL of the 30% pendimethalin emulsion was diluted with 1947 μL of water.
(§11) A 150 cm^2 pot was filled with a soil, seeds of each purple amaranth, Japanese bristlegrass, southern crabgrass, and velvet leaf were sown on the surface layer, lightly covered with a soil and grown in a greenhouse. When each plant grew to a plant height of 2 to 9 cm, the test spray liquid was sprayed to the stem and leaf parts with a small spraying machine such that an active ingredient amount was 2000 g per hectare and a sprayed liquid amount was 1000 L per hectare.
(§12) Similarly, the test spray liquid for a small amount spray test was sprayed to the stem and leaf parts with a small spraying machine such that an active ingredient amount was 2000 g per hectare and a sprayed liquid amount was 250 L per hectare.
(§13) Two weeks later, the above-ground grass weight in non-treated areas and the above-ground grass weight in treated areas, by the weed, were measured to calculate a killing weed rate by the following calculating formula.
(§14) (a) Calculating Formula of Weeding Rate Killing weed rate (%)=(above-ground grass weight in non-treated area−above-ground grass weight in treated area)/(above-ground grass weight in non-treated area)×100 (b) Killing Weed Indexes
(§15) The obtained killing weed rates were evaluated, such that a killing weed index was “10” when a killing weed rate is 100%, as “9” when a killing weed rate is 99% to 90%, “8” when a killing weed rate is 89% to 80%, “7” when a killing weed rate is 79% to 70%, “6” when a killing weed rate is 69% to 60%, “5” when a killing weed rate is 59% to 50%, “4” when a killing weed rate is 49% to 40%, “3” when a killing weed rate is 39% to 30%, “2” when a killing weed rate is 29% to 20%, “1” when a killing weed rate is 19% to 10%, and “0” when a killing weed rate is 9% to 0%.

southern crabgrass = assay: as above; assay type: in vivo; conditions: 2000 g active ingredient per hectare, two weeks later
Method: as §7, §8, §9, §10, §11, §12, §13, §14, §15

velvet leaf [2] = assay: as above; assay type: in vivo; conditions: 2000 g active ingredient per hectare, two weeks later
Method: as §7, §8, §9, §10, §11, §12, §13, §14, §15

purple amaranth = assay: as above; assay type: in vivo; conditions: 2000 g active ingredient per hectare, two weeks later
Method: as §7, §8, §9, §10, §11, §12, §13, §14, §15

[3] = sprayed liquid amount 1000 L/ha

## CCCCCCCCCOn1cccc1C(=O)NC [Compound 9d]
Japanese millet
  plant growth inhibition index, Japanese millet: 3 (Growth of the stem and leave parts was inhibited 30% or more compared with non-treated area, or growth of the only root part was inhibited 60% or more compared with non-treated area.)
Velvet leaf [1]
  plant growth inhibition index, Velvet leaf: 0
Morning glory
  plant growth inhibition index, Morning glory: 0
Ragweed
  plant growth inhibition index, Ragweed: 3 (Growth of the stem and leave parts was inhibited 30% or more compared with non-treated area, or growth of the only root part was inhibited 60% or more compared with non-treated area.)
Thale cress
  Index: 3
Japanese bristlegrass; sprayed liquid amount 250 L/ha
  killing weed index, Japanese bristlegrass: 2 (“2” when a killing weed rate is 29% to 20%)
Japanese bristlegrass; [3]
  killing weed index, Japanese bristlegrass: 1 (“1” when a killing weed rate is 19% to 10%)
Southern crabgrass; sprayed liquid amount 250 L/ha
  killing weed index, Southern crabgrass: 3 (“3” when a killing weed rate is 39% to 30%)
Southern crabgrass; [3]
  killing weed index, Southern crabgrass: 2 (“2” when a killing weed rate is 29% to 20%)
Velvet leaf [2]; sprayed liquid amount 250 L/ha
  killing weed index, Velvet leaf: 3 (“3” when a killing weed rate is 39% to 30%)
Velvet leaf [2]; [3]
  killing weed index, Velvet leaf: 0 (“0” when a killing weed rate is 9% to 0%)
Purple amaranth; sprayed liquid amount 250 L/ha
  killing weed index, Purple amaranth: 0 (“0” when a killing weed rate is 9% to 0%)
Purple amaranth; [3]
  killing weed index, Purple amaranth: 0 (“0” when a killing weed rate is 9% to 0%)

## CCCCCCCCCOn1cccc1C(=O)NCc1ccccc1 [Compound 9e]
Japanese millet
  plant growth inhibition index, Japanese millet: 3 (Growth of the stem and leave parts was inhibited 30% or more compared with non-treated area, or growth of the only root part was inhibited 60% or more compared with non-treated area.)
Velvet leaf [1]
  plant growth inhibition index, Velvet leaf: 0
Morning glory
  plant growth inhibition index, Morning glory: 0
Ragweed
  plant growth inhibition index, Ragweed: 0
Thale cress
  Index: 2 (Growth of the root part was inhibited 50% or more compared with non-treated area.)
Japanese bristlegrass; sprayed liquid amount 250 L/ha
  killing weed index, Japanese bristlegrass: 2 (“2” when a killing weed rate is 29% to 20%)
Japanese bristlegrass; [3]
  killing weed index, Japanese bristlegrass: 2 (“2” when a killing weed rate is 29% to 20%)
Southern crabgrass; sprayed liquid amount 250 L/ha
  killing weed index, Southern crabgrass: 2 (“2” when a killing weed rate is 29% to 20%)
Southern crabgrass; [3]
  killing weed index, Southern crabgrass: 2 (“2” when a killing weed rate is 29% to 20%)
Velvet leaf [2]; sprayed liquid amount 250 L/ha
  killing weed index, Velvet leaf: 2 (“2” when a killing weed rate is 29% to 20%)
Velvet leaf [2]; [3]
  killing weed index, Velvet leaf: 0 (“0” when a killing weed rate is 9% to 0%)
Purple amaranth; sprayed liquid amount 250 L/ha
  killing weed index, Purple amaranth: 0 (“0” when a killing weed rate is 9% to 0%)
Purple amaranth; [3]
  killing weed index, Purple amaranth: 0 (“0” when a killing weed rate is 9% to 0%)

## CCCCCCCCCOn1cccc1C(=O)NCC(F)(F)F [Compound 9f]
Japanese millet
  plant growth inhibition index, Japanese millet: 3 (Growth of the stem and leave parts was inhibited 30% or more compared with non-treated area, or growth of the only root part was inhibited 60% or more compared with non-treated area.)
Velvet leaf [1]
  plant growth inhibition index, Velvet leaf: 0
Morning glory
  plant growth inhibition index, Morning glory: 3 (Growth of the stem and leave parts was inhibited 30% or more compared with non-treated area, or growth of the only root part was inhibited 60% or more compared with non-treated area.)
Ragweed
  plant growth inhibition index, Ragweed: 5 (Growth of the stem and leave parts was inhibited 50% or more compared with non-treated area, or growth of the only root part was inhibited 100% or more compared with non-treated area.)
Thale cress
  Index: 2 (Growth of the root part was inhibited 50% or more compared with non-treated area.)
Japanese bristlegrass; sprayed liquid amount 250 L/ha
  killing weed index, Japanese bristlegrass: 2 (“2” when a killing weed rate is 29% to 20%)
Japanese bristlegrass; [3]
  killing weed index, Japanese bristlegrass: 1 (“1” when a killing weed rate is 19% to 10%)
Southern crabgrass; sprayed liquid amount 250 L/ha
  killing weed index, Southern crabgrass: 2 (“2” when a killing weed rate is 29% to 20%)
Southern crabgrass; [3]
  killing weed index, Southern crabgrass: 3 (“3” when a killing weed rate is 39% to 30%)
Velvet leaf [2]; sprayed liquid amount 250 L/ha
  killing weed index, Velvet leaf: 0 (“0” when a killing weed rate is 9% to 0%)
Velvet leaf [2]; [3]
  killing weed index, Velvet leaf: 0 (“0” when a killing weed rate is 9% to 0%)
Purple amaranth; sprayed liquid amount 250 L/ha
  killing weed index, Purple amaranth: 0 (“0” when a killing weed rate is 9% to 0%)
Purple amaranth; [3]
  killing weed index, Purple amaranth: 0 (“0” when a killing weed rate is 9% to 0%)

## CCCCCCCCCOn1cc(C)cc1C(=O)O [Compound 9c]
Thale cress
  Index: 3
Japanese bristlegrass; sprayed liquid amount 250 L/ha
  killing weed index, Japanese bristlegrass: 2 (“2” when a killing weed rate is 29% to 20%)
Japanese bristlegrass; [3]
  killing weed index, Japanese bristlegrass: 3 (“3” when a killing weed rate is 39% to 30%)
Southern crabgrass; sprayed liquid amount 250 L/ha
  killing weed index, Southern crabgrass: 3 (“3” when a killing weed rate is 39% to 30%)
Southern crabgrass; [3]
  killing weed index, Southern crabgrass: 5 (“5” when a killing weed rate is 59% to 50%)
Velvet leaf [2]; sprayed liquid amount 250 L/ha
  killing weed index, Velvet leaf: 5 (“5” when a killing weed rate is 59% to 50%)
Velvet leaf [2]; [3]
  killing weed index, Velvet leaf: 0 (“0” when a killing weed rate is 9% to 0%)
Purple amaranth; sprayed liquid amount 250 L/ha
  killing weed index, Purple amaranth: 1 (“1” when a killing weed rate is 19% to 10%)
Purple amaranth; [3]
  killing weed index, Purple amaranth: 0 (“0” when a killing weed rate is 9% to 0%)

## O=C(O)c1cccn1OCCCC(F)(F)F [Compound 8i]
Thale cress; 200 μM, 8 days (Evaluation 8)
  index on the plant growth inhibition effect: 2 (Growth of the root part was inhibited 50% or more compared with non-treated area.)
Japanese bristlegrass; sprayed liquid amount 250 L/ha
  killing weed index, Japanese bristlegrass: 1 (“1” when a killing weed rate is 19% to 10%)
Japanese bristlegrass; [3]
  killing weed index, Japanese bristlegrass: 3 (“3” when a killing weed rate is 39% to 30%)
Southern crabgrass; sprayed liquid amount 250 L/ha
  killing weed index, Southern crabgrass: 2 (“2” when a killing weed rate is 29% to 20%)
Southern crabgrass; [3]
  killing weed index, Southern crabgrass: 2 (“2” when a killing weed rate is 29% to 20%)
Velvet leaf [2]; sprayed liquid amount 250 L/ha
  killing weed index, Velvet leaf: 0 (“0” when a killing weed rate is 9% to 0%)
Velvet leaf [2]; [3]
  killing weed index, Velvet leaf: 0 (“0” when a killing weed rate is 9% to 0%)
Purple amaranth; sprayed liquid amount 250 L/ha
  killing weed index, Purple amaranth: 0 (“0” when a killing weed rate is 9% to 0%)
Purple amaranth; [3]
  killing weed index, Purple amaranth: 0 (“0” when a killing weed rate is 9% to 0%)
